According to patent US4661471A, “Method of inhibiting and inducing human platelet aggregation” (New England Deaconess Hospital, priority 1984, dated 1987):
Ends that are not written are not given here.

Assays:
[1] = tested on: fibrinogen binding to Human platelets; assay: Inhibition of 125I-fibrinogen binding to ADP-treated human platelets; settings: 10^8 platelets/0.5 ml treated with 5-10 micromoles of ADP; 125I-labelled fibrinogen; read-out: IC50 or 50% inhibition of fibrinogen binding
Procedure: The following experiment illustrates that the peptides of the invention can inhibit fibrinogen binding to platelets. Human platelets at a concentration of 10^8 cells/0.5 ml were treated with 5-10 micromoles of ADP. Various concentrations of the inhibitory peptides were mixed with the platelets and then […] ^125 I-labelled fibrinogen was added to the solution. The IC50 or 50% inhibition of fibrinogen binding was determined for each peptide by allowing the reaction to proceed to a conclusion, separating the platelets from unbound ^125 I-fibrinogen and determining the amount of labelled fibrinogen bound to the platelets. The less labelled fibrinogen bound to the platelets, the better the inhibition.

human platelets [2] = assay: Inhibition of ADP-induced fibrinogen (gamma chain multimer) cross-linked aggregation of platelets, light transmission; assay type: cell-based; design: dose or concentration left out as unconfirmed; settings: 10^8 platelets treated with 5-10 micromoles of ADP; 7 micromoles of gamma chain fibrinogen multimers
Procedure: The sole figure of the drawing illustrates the inhibition of ADP-induced fibrinogen dependent platelet aggregation caused by incubation with various peptides of the invention.
A 60 µM concentration of a variety of synthetic peptides of the invention was added to 10^8 platelets which had been treated with 5-10 micromoles of ADP. At time zero, 7 micromoles of gamma chain fibrinogen multimers was added and the transmission of the solution was monitored for platelet aggregate formation. FIG. 1 illustrates the results of this experiment. […] While gamma chain multimers were used, similar results have been obtained with bivalent fibrinogen molecules.

human platelets [3] = assay: Aggregation of ADP-treated platelets separated from plasma proteins by the synthetic peptide-albumin conjugate, in the absence of fibrinogen; assay type: cell-based; settings: peptide added to the platelets prior to the conjugate
Procedure: Ten micromoles of ADP was added to 10^8 platelets which had been separated from the plasma proteins.

Substance	IC50 [1]	inhibition of the aggregation reaction (transmission) (human platelets [2])	inhibition of aggregation induced by the synthetic peptide-albumin conjugate (human platelets [3])
Cys-Tyr-Gly-Gln-Gln-His-His-Leu-Gly-Gly-Ala-Lys-Gln-Ala-Gly-Asp-Val-COOH (CYGQQHHLGGAKQAGDV-OH) [heptadecapeptide]	28 µM		
HHLGGAKQAGDV [dodecapeptide]	28 µM	almost complete inhibition	the aggregation reaction is inhibited
